Values of other authors as cited in PubChem BioAssay AID493017 (Abbott Labs, 1994).

Molecular target: Platelet-derived growth factor receptor alpha (Homo sapiens) (UniProt P16234)
Assay: PubChem AID 493017
Details: WOMBAT literature affinities, multiple human targets; PDGFR; gene PDGFRA; NCBI gene 5156

Chain of Platelet-derived growth factor receptor alpha (Homo sapiens) (P16234 whole entry, looked up): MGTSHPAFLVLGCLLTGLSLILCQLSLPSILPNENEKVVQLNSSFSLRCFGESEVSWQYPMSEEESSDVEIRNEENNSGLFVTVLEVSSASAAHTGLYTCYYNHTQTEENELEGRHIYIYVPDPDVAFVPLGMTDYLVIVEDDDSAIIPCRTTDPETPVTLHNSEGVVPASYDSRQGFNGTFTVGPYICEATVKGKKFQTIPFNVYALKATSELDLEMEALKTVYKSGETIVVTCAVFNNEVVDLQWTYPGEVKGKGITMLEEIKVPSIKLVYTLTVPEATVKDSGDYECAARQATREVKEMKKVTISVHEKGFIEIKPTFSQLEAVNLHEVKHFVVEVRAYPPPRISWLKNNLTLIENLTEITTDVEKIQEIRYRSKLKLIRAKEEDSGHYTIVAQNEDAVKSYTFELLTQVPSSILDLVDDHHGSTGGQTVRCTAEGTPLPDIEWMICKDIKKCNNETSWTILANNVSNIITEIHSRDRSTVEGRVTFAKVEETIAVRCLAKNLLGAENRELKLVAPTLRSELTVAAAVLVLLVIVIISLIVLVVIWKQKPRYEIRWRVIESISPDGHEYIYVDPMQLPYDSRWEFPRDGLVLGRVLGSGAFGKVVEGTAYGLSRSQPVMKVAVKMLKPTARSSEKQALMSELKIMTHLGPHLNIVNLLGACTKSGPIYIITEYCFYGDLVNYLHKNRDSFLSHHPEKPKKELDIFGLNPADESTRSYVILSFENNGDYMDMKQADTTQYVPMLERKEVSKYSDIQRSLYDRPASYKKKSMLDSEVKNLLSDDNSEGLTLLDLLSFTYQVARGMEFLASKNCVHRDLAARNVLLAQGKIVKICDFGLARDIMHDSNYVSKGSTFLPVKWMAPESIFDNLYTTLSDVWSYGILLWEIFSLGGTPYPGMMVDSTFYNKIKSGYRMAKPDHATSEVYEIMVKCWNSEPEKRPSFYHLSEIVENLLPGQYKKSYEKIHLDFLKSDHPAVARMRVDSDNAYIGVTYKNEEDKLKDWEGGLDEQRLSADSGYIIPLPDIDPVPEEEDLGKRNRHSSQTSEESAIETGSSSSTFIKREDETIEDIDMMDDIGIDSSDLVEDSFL

IC50 [nM]	Structure (SMILES)
2830	Fc1cc2cc(-c3ccsc3)cnc2cc1F
102	COc1cc2cc(-c3ccccc3)cnc2cc1OC
200	COc1ccc(-c2cnc3cc(OC)c(OC)cc3c2)cc1C
1410	COc1cccc(-c2cnc3cc(OC)c(OC)cc3c2)c1
2650	COc1cc2cc(-c3ccc(Cl)c(Cl)c3)cnc2cc1OC
158	COc1ccc(-c2cnc3cc(OC)c(OC)cc3c2)s1
3.87	COc1ccc(-c2cnc3cc(OC)c(OC)cc3c2)cc1
387	COc1cc2cc(CCC3CCCCC3)cnc2cc1OC
54.8	COc1ccc(C=Cc2cnc3cc(OC)c(OC)cc3c2)cc1
4000	c1ccc2ncc(-c3c[nH]c4ccccc34)cc2c1
400	COc1ccc(CCc2cnc3cc(OC)c(OC)cc3c2)cc1
24500	COc1cc2cccnc2cc1OC
52.9	COc1cc2cc(OCc3ccccc3)cnc2cc1OC
1870	COc1cc2cc(-c3ccc(C(=O)O)cc3)cnc2cc1OC
24.5	COc1cc2cc(-c3ccc(O)cc3)cnc2cc1OC
548	COc1cc2cc(C#CC3CCCCC3)cnc2cc1OC
28.3	COc1cc2cc(C3=CCCC3)cnc2cc1OC
224	COc1cc2cc(C3CCCC3)cnc2cc1OC
31.6	COc1cc2cc(C#Cc3ccccc3)cnc2cc1OC
7750	Oc1cc2cc(-c3cccnc3)cnc2cc1O
245	COc1cc2cc(-c3c[nH]c4ccccc34)cnc2cc1OC
21.2	COc1cc2cc(-c3ccc(=O)[nH]c3)cnc2cc1OC
40	COc1cc2cc(NCc3ccccc3)cnc2cc1OC
